Values joined by “and” are separate entries in the source; they are usually repeats but may differ in a detail not shown here. Identical values can stand only once. Toxic doses and inconclusive results are not listed. Rule as the data show it: active = T/C of 150% or more; inactive = T/C below 125%.
Tested on: L1210 leukemia ip in BDF1 mice, survival T/C
Assay: NCI In Vivo Anticancer Drug Screen. Data for tumor model L1210 Leukemia (intraperitoneal) in B6D2F1 (BDF1) mice
Conditions: endpoint: mean survival time, higher = longer survival
In short: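 Transplantable tumor model; survival measured in treated vs vehicle control mice. Value = treated/control.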

[1] = dose: 100.0 mg/kg/injection, schedule: Q04DX002 (ip), vehicle: saline with Tween-80
[2] = dose: 200.0 mg/kg/injection, schedule: Q04DX002 (ip), vehicle: saline with Tween-80
[3] = dose: 50.0 mg/kg/injection, schedule: Q01DX001 (ip), vehicle: saline
[4] = dose: 100.0 mg/kg/injection, schedule: Q01DX001 (ip), vehicle: saline
[5] = dose: 200.0 mg/kg/injection, schedule: Q01DX001 (ip), vehicle: saline
[6] = dose: 400.0 mg/kg/injection, schedule: Q01DX001 (ip), vehicle: saline
[7] = dose: 100.0 mg/kg/injection, schedule: Q01DX009 (ip), vehicle: Klucel (hydroxypropylcellulose) (HPC)
[8] = dose: 100.0 mg/kg/injection, schedule: Q04DX002 (ip), vehicle: Klucel (hydroxypropylcellulose) (HPC)
[9] = dose: 200.0 mg/kg/injection, schedule: Q01DX009 (ip), vehicle: Klucel (hydroxypropylcellulose) (HPC)
[10] = dose: 200.0 mg/kg/injection, schedule: Q04DX002 (ip), vehicle: Klucel (hydroxypropylcellulose) (HPC)
[11] = dose: 400.0 mg/kg/injection, schedule: Q01DX009 (ip), vehicle: Klucel (hydroxypropylcellulose) (HPC)
[12] = dose: 400.0 mg/kg/injection, schedule: Q04DX002 (ip), vehicle: Klucel (hydroxypropylcellulose) (HPC)
[13] = dose: 100.0 mg/kg/injection, schedule: Q01DX009 (ip), vehicle: saline with Tween-80
[14] = dose: 100.0 mg/kg/injection, schedule: Q04DX003 (ip), vehicle: saline with Tween-80
[15] = dose: 200.0 mg/kg/injection, schedule: Q04DX003 (ip), vehicle: saline with Tween-80
[16] = dose: 400.0 mg/kg/injection, schedule: Q04DX003 (ip), vehicle: saline with Tween-80
[17] = dose: 100.0 mg/kg/injection, schedule: Q04DX003 (ip), vehicle: Klucel (hydroxypropylcellulose) (HPC)
[18] = dose: 200.0 mg/kg/injection, schedule: Q04DX003 (ip), vehicle: Klucel (hydroxypropylcellulose) (HPC)
[19] = dose: 100.0 mg/kg/injection, schedule: Q01DX001 (ip), vehicle: saline with Tween-80
[20] = dose: 200.0 mg/kg/injection, schedule: Q01DX001 (ip), vehicle: saline with Tween-80
[21] = dose: 400.0 mg/kg/injection, schedule: Q01DX001 (ip), vehicle: saline with Tween-80

Measured: T/C

COc1ccc(CN(CCc2ccc(O)cc2)C(=O)C(F)(F)F)cc1O
inactive: dose: 100.0 mg/kg/injection, schedule: Q01DX001 (ip), vehicle: Klucel (hydroxypropylcellulose) (HPC) 91 % of control | dose: 200.0 mg/kg/injection, schedule: Q01DX001 (ip), vehicle: Klucel (hydroxypropylcellulose) (HPC) 89 % of control | dose: 400.0 mg/kg/injection, schedule: Q01DX001 (ip), vehicle: Klucel (hydroxypropylcellulose) (HPC) 87 % of control

CC(C)=CCNC1=NCCN1
inactive: dose: 12.5 mg/kg/injection, schedule: Q01DX009 (ip), vehicle: saline 91 % of control | dose: 25.0 mg/kg/injection, schedule: Q01DX009 (ip), vehicle: saline 94 % of control | dose: 50.0 mg/kg/injection, schedule: Q01DX009 (ip), vehicle: saline 99 % of control

CC(C)C1(Br)C(=O)NC(=O)NC1=O
inactive: dose: 6.25 mg/kg/injection, schedule: Q01DX009 (ip), vehicle: Klucel (hydroxypropylcellulose) (HPC) 103 % of control | dose: 12.5 mg/kg/injection, schedule: Q01DX009 (ip), vehicle: Klucel (hydroxypropylcellulose) (HPC) 108 % of control

Cc1nc(CCl)no1
inactive: [1] 104 % of control | [2] 95 % of control

NC(=S)N=Nc1ccc(O)cc1
inactive: [3] 103 % of control | [4] 100 % of control | [5] 100 % of control | [6] 109 % of control

CNC(=O)Oc1ccc(Nc2ccccc2)cc1
inactive: [7] 97 % of control and 104 % of control | [8] 105 % of control and 88 % of control | [9] 100 % of control and 104 % of control | [10] 97 % of control and 98 % of control | [11] 95 % of control and 104 % of control | [12] 93 % of control and 108 % of control

COCC(=O)C(C(C)=O)C(c1ccc2c(c1)OCO2)C(C(C)=O)C(=O)COC (configuration not stated)
inactive: [13] 87 % of control

CCOc1ccc(/C=N/NC(=O)CCCCCCCCC(=O)N/N=C/c2ccc(OCC)c(OC)c2)cc1OC
inactive: [7] 95 % of control | [9] 88 % of control | [11] 97 % of control

COc1ccc(OC(=O)OCc2ccc(OC)c(OC)c2)cc1
inactive: [14] 102 % of control | [15] 96 % of control | [16] 96 % of control

CCOP(=O)(Nc1cc2c(cc1Cl)-c1ccccc1C2=O)OCC
inactive: dose: 100.0 mg/kg/injection, schedule: Q01DX001 (ip), vehicle: carboxymethylcellulose (CMC) 99 % of control | dose: 200.0 mg/kg/injection, schedule: Q01DX001 (ip), vehicle: carboxymethylcellulose (CMC) 89 % of control | dose: 400.0 mg/kg/injection, schedule: Q01DX001 (ip), vehicle: carboxymethylcellulose (CMC) 91 % of control

COC1OC2COC(c3ccccc3)OC2C2OC(=S)OC12 (configuration not stated)
inactive: dose: 25.0 mg/kg/injection, schedule: Q04DX002 (ip), vehicle: Klucel (hydroxypropylcellulose) (HPC) 104 % of control | dose: 50.0 mg/kg/injection, schedule: Q04DX002 (ip), vehicle: Klucel (hydroxypropylcellulose) (HPC) 97 % of control | [4] 102 % of control | [8] 104 % of control | dose: 100.0 mg/kg/injection, schedule: Q04DX002 (ip), vehicle: saline 93 % of control | [5] 98 % of control | dose: 200.0 mg/kg/injection, schedule: Q04DX002 (ip), vehicle: saline 100 % of control | [6] 98 % of control | dose: 400.0 mg/kg/injection, schedule: Q04DX002 (ip), vehicle: saline 107 % of control

OCC1OC(n2c(=S)[nH]c3ccccc32)C(O)C1O (configuration not stated)
inactive: [4] 108 % of control | [5] 100 % of control | [6] 106 % of control

CCCCNC(=O)Nc1ccc(OC)cc1Cl
inactive: [7] 102 % of control | [17] 90 % of control | [9] 106 % of control | [18] 97 % of control | [11] 87 % of control | dose: 400.0 mg/kg/injection, schedule: Q04DX003 (ip), vehicle: Klucel (hydroxypropylcellulose) (HPC) 92 % of control

Cc1ccc(C)c(NC(=O)Oc2ccc(Cl)cc2C)c1
inactive: [19] 100 % of control and 91 % of control | [13] 86 % of control | [1] 92 % of control | [20] 98 % of control | dose: 200.0 mg/kg/injection, schedule: Q01DX009 (ip), vehicle: saline with Tween-80 100 % of control and 89 % of control | [2] 92 % of control | [21] 94 % of control and 100 % of control | dose: 400.0 mg/kg/injection, schedule: Q01DX009 (ip), vehicle: saline with Tween-80 99 % of control and 100 % of control | dose: 400.0 mg/kg/injection, schedule: Q04DX002 (ip), vehicle: saline with Tween-80 89 % of control

CCCCCCCCCCCCCCCCC1CCCC2(CCCC2)C1 (configuration not stated)
inactive: [19] 103 % of control | [20] 92 % of control | [21] 101 % of control

CC(=O)C1CCCCC1
inactive: [14] 107 % of control | [15] 109 % of control | [16] 96 % of control

CCCC(=O)Nc1ccc(NS(C)(=O)=O)cc1OC
inactive: dose: 100.0 mg/kg/injection, schedule: Q01DX009 (ip), vehicle: saline 103 % of control | dose: 100.0 mg/kg/injection, schedule: Q04DX003 (ip), vehicle: saline 102 % of control | dose: 200.0 mg/kg/injection, schedule: Q01DX009 (ip), vehicle: saline 100 % of control | dose: 200.0 mg/kg/injection, schedule: Q04DX003 (ip), vehicle: saline 102 % of control | dose: 400.0 mg/kg/injection, schedule: Q01DX009 (ip), vehicle: saline 102 % of control | dose: 400.0 mg/kg/injection, schedule: Q04DX003 (ip), vehicle: saline 100 % of control

Cc1cc2nc(CCl)[nH]c2cc1C
inactive: [3] 106 % of control | [4] 108 % of control | [5] 112 % of control

Cc1[nH]c2ccccc2c(=O)c1/C=N/NC(N)=S
inactive: [8] 109 % of control | [10] 91 % of control | [12] 98 % of control

NC(=O)c1ccccc1I
inactive: dose: 75.0 mg/kg/injection, schedule: Q01DX001 (ip), vehicle: saline 101 % of control | dose: 75.0 mg/kg/injection, schedule: Q01DX009 (ip), vehicle: saline 103 % of control | dose: 150.0 mg/kg/injection, schedule: Q01DX001 (ip), vehicle: saline 96 % of control | dose: 150.0 mg/kg/injection, schedule: Q01DX009 (ip), vehicle: saline 86 % of control | dose: 300.0 mg/kg/injection, schedule: Q01DX001 (ip), vehicle: saline 96 % of control | dose: 300.0 mg/kg/injection, schedule: Q01DX009 (ip), vehicle: saline 100 % of control

Cc1cccc(Cl)c1NC(=O)Cn1cccc1
inactive: dose: 25.0 mg/kg/injection, schedule: Q01DX009 (ip), vehicle: Klucel (hydroxypropylcellulose) (HPC) 95 % of control | dose: 50.0 mg/kg/injection, schedule: Q01DX009 (ip), vehicle: Klucel (hydroxypropylcellulose) (HPC) 95 % of control | dose: 75.0 mg/kg/injection, schedule: Q01DX009 (ip), vehicle: Klucel (hydroxypropylcellulose) (HPC) 94 % of control | [17] 100 % of control | [18] 93 % of control

CSC(=S)NNC(=O)c1ccc([N+](=O)[O-])cc1
inactive: dose: 6.25 mg/kg/injection, schedule: Q04DX003 (ip), vehicle: saline sonified 96 % of control | dose: 12.5 mg/kg/injection, schedule: Q04DX003 (ip), vehicle: saline sonified 98 % of control

O=C(CCCC(=O)NNC(=O)Nc1cc(Cl)ccc1Cl)NNC(=O)Nc1cc(Cl)ccc1Cl
inactive: [3] 108 % of control | [4] 102 % of control | [5] 102 % of control | [6] 102 % of control

Source: PubChem BioAssay AID248 (DTP/NCI, 2004)
